Experimental data from US20010047099A1, “4-aminopicolinates and their use as herbicides” (priority 2000, published 2001).

Experiments:
[1] = tested on: morningglory (Ipomoea hederacea); assay: Preemergence herbicidal activity; format: in vivo; details: Ipomoea, 504 h, Table 6 (headed Post-emergent; text: preemergence), after 3 weeks, read-out: % Control IPOHE; for pest or weed control at 280 ppm: rate 280 ppm; for pest or weed control at 560 ppm: rate 560 ppm
Outline: (§1)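 Visual injury score, 0-100 percent (0 = no injury, 100 = complete kill or no germination), taken 3 weeks after treatment relative to untreated plants. Test solutions in water/Tween 155 with acetone/DMSO carrier were sprayed onto the soil of freshly seeded pots. Greenhouse, 15 hr light.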

[2] = tested on: pigweed (Amaranthus retroflexus); assay: Preemergence herbicidal activity; format: in vivo; details: Amaranthus retroflexus, 504 h, Table 6 (headed Post-emergent; text: preemergence), after 3 weeks, read-out: % Control AMARE; for pest or weed control at 280 ppm: rate 280 ppm; for pest or weed control at 560 ppm: rate 560 ppm
Outline: as §1

[3] = tested on: velvetleaf (Abutilon theophrasti); assay: Preemergence herbicidal activity; format: in vivo; details: Abutilon theophrasti, 504 h, Table 6 (headed Post-emergent; text: preemergence), after 3 weeks, read-out: % Control ABUTH; for pest or weed control at 280 ppm: rate 280 ppm; for pest or weed control at 560 ppm: rate 560 ppm
Outline: as §1

[4] = tested on: White Clover (Trifolium repens); assay: Range & Pasture Crop Testing (postemergence track sprayer); format: in vivo; details: Table 10
Experimental: (§2) By applying the well-accepted probit analysis as described by J. Berkson in Journal of the […], 48, 565 (1953) and by D. Finney in “Probit Analysis” Cambridge University Press (1952), the above data can be used to calculate GR50 and GR80 values, which are defined as growth reduction factors that correspond to the effective dose of herbicide required to kill or control 50 percent or 80 percent, respectively, of a target plant.
(§3) Rates are calculated based upon 5 doses being applied. The high rate (X), followed by serial dilutions of 1/2×, 1/4×, 1/8× and 1/16×. Compound requirements are based upon the 187 L/ha carrier volume, specifications of the delivery system (Mandel track sprayer) and generating 24 mL of technical spray material to allow for the dilutions and overage in the sprayer. [formula]
(§4) All technical materials were formulated in 97:3 (acetone:DMSO) with 0.25% X-77. The total volume of solvent is maintained at less than 7%. An overhead Mandel track sprayer calibrated to deliver 187 L/ha was used for all treatment applications (postemergence). Picloram was included as a comparison treatment.
(§5) Solutions were applied with a mechanized track-sprayer at the following settings:
(§6) Spray height: 17 inches above top of plants
(§7) This provides an application volume of 187 L/ha.
(§8) Percent weed control (burn down) was evaluated 3 weeks after treatment. Visual control on a 0-100 linear scale was used, with 0 representing no control and 100 representing total control. Burn down ratings were taken for annual and perennial weed species.

[5] = tested on: field bindweed (Convolvulus arvensis); assay: as above; format: in vivo; details: Table 10; clover pasture; postemergence
Experimental: as §2, §3, §4, §5, §6, §7, §8

[6] = tested on: Canada thistle (Cirsium arvense); assay: as above; format: in vivo; details: for GR80 CIRAR: Table 10, clover pasture, postemergence
Experimental: as §2, §3, §4, §5, §6, §7, §8

[7] = tested on: wild buckwheat (Polygonum convolvulus); assay: Postemergence herbicidal activity; format: in vivo; details: for pest or weed control at 125 ppm / pest or weed control at 250 ppm: Fallopia convolvulus, post-emergence, 336 h, Table 1, visual, after 2 weeks, read-out: Post-emergent % Control POLCO; for pest or weed control at 125 ppm: rate 125 ppm; for Post-emergent Evaluation - % control POLCO: Table 5
Outline: (§9)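 Plants are raised from seed under greenhouse conditions until the first or second true leaf appears. They are then sprayed with test solutions at known concentrations, where 1 ppm corresponds to roughly 1 g/Ha. Two weeks later, injury is rated by eye from 0 to 100%.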

[8] = tested on: cocklebur (Xanthium strumarium); assay: Postemergence herbicidal activity; format: in vivo; details: Xanthium strumarium, post-emergence, 336 h, Table 1, visual, after 2 weeks, read-out: Post-emergent % Control XANST; for pest or weed control at 125 ppm: rate 125 ppm; for pest or weed control at 250 ppm: rate 250 ppm
Outline: as §9

[9] = tested on: chickweed (Stellaria media); assay: Postemergence herbicidal activity; format: in vivo; details: for pest or weed control at 125 ppm / pest or weed control at 250 ppm: Stellaria media, post-emergence, 336 h, Table 1, visual, after 2 weeks, read-out: Post-emergent % Control STEME; for pest or weed control at 125 ppm: rate 125 ppm; for Post-emergent Evaluation - % control STEME: Table 5
Outline: as §9

[10] = tested on: broadleaf dock (Rumex obtusifolia); assay: Range & Pasture Crop Testing (postemergence track sprayer); format: in vivo; details: Table 9; rate 70 g/Ha; 3 weeks after treatment
Experimental: as §3, §4, §5, §6, §7, §8

[11] = tested on: crested wheatgrass (Agropyron cristatum) (grass crop); assay: as above; format: in vivo; details: Table 9, rate 70 g/Ha, 3 weeks after treatment
Experimental: as §3, §4, §5, §6, §7, §8

[12] = tested on: wheat (Triticum aestivum); assay: Postemergence herbicidal activity, selectivity to wheat; format: in vivo; details: Table 5, crop (wheat)
Experimental: Seeds of the desired test plant species were planted in Grace-Sierra MetroMix® 306 planting mixture, which typically has a pH of 6.0 to 6.8 and an organic matter content of about 30 percent, in plastic pots with a surface area of 64 square centimeters. When required to ensure good germination and healthy plants, a fungicide treatment and/or other chemical or physical treatment was applied. The plants were grown for 7-21 days in a greenhouse with an approximate 15 hr photoperiod which was maintained at about 23-29° C. during the day and 22-28° C. during the night. Nutrients and water were added on a regular basis and supplemental lighting was provided with overhead metal halide 1000-Watt lamps as necessary. The plants were employed for testing when they reached the first or second true leaf stage.
A weighed amount, determined by the highest rate to be tested, of each test compound was placed in a 20 mL glass vial and was dissolved in 4 mL of a 97:3 v/v (volume/volume) mixture of acetone and dimethyl sulfoxide (DMSO) to obtain concentrated stock solutions. […] The concentrated stock solutions obtained were diluted with an aqueous mixture containing acetone, water, isopropyl alcohol, DMSO, Atplus 411F crop oil concentrate, and Triton X-155 surfactant in a 48.5:39:10:1.5:1.0:0.02 v/v ratio to obtain spray solutions of known concentration. The solutions containing the highest concentration to be tested were prepared by diluting 2 mL aliquots of the stock solution with 13 mL of the mixture and lower concentrations were prepared by serial dilution of the stock solution. Approximately 1.5 mL aliquots of each solution of known concentration were sprayed evenly onto each of the test plant pots using a DeVilbiss atomizer driven by compressed air pressure of 2 to 4 psi ([…]) to obtain thorough coverage of each plant. Control plants were sprayed in the same manner with the aqueous mixture. In this test an application rate of 1 ppm results in the application of approximately 1 g/Ha.
The treated plants and control plants were placed in a greenhouse as described above and watered by sub-irrigation to prevent wash-off of the test compounds. After 2 weeks the condition of the test plants as compared with that of the untreated plants was determined visually and scored on a scale of 0 to 100 percent where 0 corresponds to no injury and 100 corresponds to complete kill.

[13] = tested on: lambsquarters (Chenopodium album); assay: Postemergence herbicidal activity; format: in vivo; details: Table 5
Outline: as §9

SMILES	melting point [°C]	pest or weed control at 280 ppm [1] [%]	pest or weed control at 280 ppm [2] [%]	pest or weed control at 280 ppm [3] [%]	GR20 TRFRE [4] [g/ha]	GR80 CONAR [5] [g/ha]	GR80 CIRAR [6] [g/ha]	pest or weed control at 125 ppm [7] [%]	pest or weed control at 125 ppm [8] [%]	pest or weed control at 125 ppm [9] [%]	pest or weed control at 250 ppm ([7]; rate 250 ppm) [%]	pest or weed control at 250 ppm [8] [%]	pest or weed control at 250 ppm ([9]; rate 250 ppm) [%]	also measured
CCCOC(=O)c1nc(Cl)cc(N)c1Cl [Compound 5, n-propyl 4-amino-3,6-dichloropyridine-2-carboxylate]	94 to 95	100	100	100	<17.5	140.1	<17.5	100	100	100				
CCCCOC(=O)c1nc(Cl)cc(N)c1Cl [Compound 7, n-butyl 4-amino-3,6-dichloropyridine-2-carboxylate]	78 to 79	100	100	100	15.3	116.6	17.3				100	100	100	
CCCCCCOC(=O)c1nc(Cl)cc(N)c1Cl [Compound 9, n-hexyl 4-amino-3,6-dichloropyridine-2-carboxylate]	65 to 66	100	98	100	20.7	66	20.7				100	100	100	
CNc1cc(Cl)nc(C(=O)O)c1Cl [Compound 26, 4-N-Methylamino-3,6-dichloropyridine-2-carboxylic acid]	170 to 172							95	90	90				pest or weed control at 560 ppm [1]: 100%; pest or weed control at 560 ppm [2]: 100%; pest or weed control at 560 ppm [3]: 100%; Post-emergent Evaluation - % control CIRAR ([6]; Table 9, rate 70 g/Ha, 3 weeks after treatment): 90%; Post-emergent Evaluation - % control RUMOB [10]: 100%; Post-emergent Evaluation - % control AGRCR [11]: 10%
COc1c(N)cc(Br)nc1C(=O)O [Compound 41, 4-Amino-6-bromo-3-methoxypyridine-2-carboxylic acid]		85	40	90				100	80	90				Post-emergent Evaluation - % control TRZAS ([12]; rate 250 ppm): 10%; Post-emergent Evaluation - % control CHEAL ([13]; rate 250 ppm): 90%; Post-emergent Evaluation - % control POLCO ([7]; rate 250 ppm): 100%; Post-emergent Evaluation - % control STEME ([9]; rate 250 ppm): 20%
Nc1cc(C(F)(F)F)nc(C(=O)O)c1Cl [Compound 46, 4-Amino-3-chloro-6-trifluoromethylpyridine-2-carboxylic acid]	131 to 133										100	90	60	pest or weed control at 140 ppm ([1]; rate 140 ppm): 100%; pest or weed control at 140 ppm ([2]; rate 140 ppm): 95%; pest or weed control at 140 ppm ([3]; rate 140 ppm): 95%; Post-emergent Evaluation - % control TRZAS ([12]; rate 31 ppm): 10%; Post-emergent Evaluation - % control CHEAL ([13]; rate 31 ppm): 100%; Post-emergent Evaluation - % control POLCO ([7]; rate 31 ppm): 100%; Post-emergent Evaluation - % control STEME ([9]; rate 31 ppm): 50%
Nc1c(Cl)c(Oc2ccccc2)nc(C(=O)O)c1Cl [Compound 54, 4-Amino-3,5-dichloro-6-phenoxypyridine-2-carboxylic acid]	158 to 160	41	10	50							40	100	0	
CC(C)COc1nc(C(=O)O)c(Cl)c(N)c1Cl [Compound 56, 4-Amino-3,5-dichloro-6-(2-methylpropoxy)pyridine-2-carboxylic acid]	104 to 106										20	85	30	pest or weed control at 560 ppm [1]: 0%; pest or weed control at 560 ppm [2]: 0%; pest or weed control at 560 ppm [3]: 40%
